ChEMBL document CHEMBL1201862, “PubChem BioAssay data set” (2004)
Activity calls are given as the source filed them.

Legend:
[1] = target: Death-associated protein kinase 3 (Homo sapiens, UniProt O43293); format: functional;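 also: measured as one member of a kinome-wide profiling panel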
[2] = target: Dual specificity protein kinase CLK4 (Homo sapiens, UniProt Q9HAZ1); format: functional
[3] = target: ALK tyrosine kinase receptor (Homo sapiens, UniProt Q9UM73); format: functional;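 also: ALK tested as one member of a kinase panel screen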
[4] = target: Cyclin-dependent kinase 8 (Homo sapiens, UniProt P49336); test: Navigating the Kinome. Panel member name: CDK8; format: functional
[5] = target: BDNF/NT-3 growth factors receptor (Homo sapiens, UniProt Q16620); format: functional;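 also: NTRK2 measured as one member of a broad kinome-wide kinase profiling panel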
[6] = target: Glycogen synthase kinase-3 alpha (Homo sapiens, UniProt P49840); format: functional;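 also: GSK3A result taken from a broad kinome-wide kinase panel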
[7] = target: Fibroblast growth factor receptor 1 (Homo sapiens, UniProt P11362); format: functional
[8] = target: Macrophage-stimulating protein receptor (Homo sapiens, UniProt Q04912); test: Navigating the Kinome. Panel member name: MST1R; format: functional
[9] = target: Calcium/calmodulin-dependent protein kinase type II subunit alpha (Homo sapiens, UniProt Q9UQM7); test: Navigating the Kinome. Panel member name: CAMK2A; format: functional
[10] = target: Tyrosine-protein kinase Lck (Homo sapiens, UniProt P06239); format: functional;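 also: lck was assayed as one member of a kinase panel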
[11] = target: Tyrosine-protein kinase JAK2 (Homo sapiens, UniProt O60674); format: functional;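 also: JAK2 tested as one member of a kinase panel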
Chain of Tyrosine-protein kinase JAK2 (O60674 whole entry): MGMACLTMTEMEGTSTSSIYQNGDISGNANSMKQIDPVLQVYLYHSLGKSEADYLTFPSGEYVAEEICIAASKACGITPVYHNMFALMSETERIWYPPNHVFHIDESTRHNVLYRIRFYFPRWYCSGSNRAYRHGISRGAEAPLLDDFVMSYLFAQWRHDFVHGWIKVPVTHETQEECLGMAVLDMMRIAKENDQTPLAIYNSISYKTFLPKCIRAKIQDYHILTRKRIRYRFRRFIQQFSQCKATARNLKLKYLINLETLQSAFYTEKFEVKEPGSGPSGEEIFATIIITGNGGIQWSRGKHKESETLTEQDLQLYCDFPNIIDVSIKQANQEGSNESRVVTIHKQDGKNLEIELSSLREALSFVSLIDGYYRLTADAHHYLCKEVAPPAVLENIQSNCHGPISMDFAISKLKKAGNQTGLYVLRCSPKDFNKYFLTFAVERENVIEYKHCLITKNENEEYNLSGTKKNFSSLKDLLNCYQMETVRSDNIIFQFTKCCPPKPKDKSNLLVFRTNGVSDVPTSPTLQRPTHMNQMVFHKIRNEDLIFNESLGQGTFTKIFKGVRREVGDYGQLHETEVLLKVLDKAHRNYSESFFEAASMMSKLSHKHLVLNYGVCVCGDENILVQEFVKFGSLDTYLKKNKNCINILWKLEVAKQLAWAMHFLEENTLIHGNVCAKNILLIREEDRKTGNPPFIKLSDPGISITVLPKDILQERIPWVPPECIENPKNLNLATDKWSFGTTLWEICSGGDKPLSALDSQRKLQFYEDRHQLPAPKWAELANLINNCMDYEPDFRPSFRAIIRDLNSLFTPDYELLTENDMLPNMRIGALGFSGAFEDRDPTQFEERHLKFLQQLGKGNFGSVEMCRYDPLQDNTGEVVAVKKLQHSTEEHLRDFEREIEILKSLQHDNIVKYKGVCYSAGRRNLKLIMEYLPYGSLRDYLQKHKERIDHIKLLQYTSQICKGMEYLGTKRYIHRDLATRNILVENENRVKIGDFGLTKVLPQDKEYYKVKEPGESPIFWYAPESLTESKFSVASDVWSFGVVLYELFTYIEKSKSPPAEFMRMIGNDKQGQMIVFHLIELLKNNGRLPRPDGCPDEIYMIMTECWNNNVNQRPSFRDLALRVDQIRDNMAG

[12] = target: Tyrosine-protein kinase receptor TYRO3 (Homo sapiens, UniProt Q06418); format: functional;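 also: TYRO3 value obtained as one member of a kinome-wide profiling panel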
[13] = target: Mitogen-activated protein kinase kinase kinase kinase 4 (Homo sapiens, UniProt O95819); format: functional
Chain of Mitogen-activated protein kinase kinase kinase kinase 4 (O95819 whole entry): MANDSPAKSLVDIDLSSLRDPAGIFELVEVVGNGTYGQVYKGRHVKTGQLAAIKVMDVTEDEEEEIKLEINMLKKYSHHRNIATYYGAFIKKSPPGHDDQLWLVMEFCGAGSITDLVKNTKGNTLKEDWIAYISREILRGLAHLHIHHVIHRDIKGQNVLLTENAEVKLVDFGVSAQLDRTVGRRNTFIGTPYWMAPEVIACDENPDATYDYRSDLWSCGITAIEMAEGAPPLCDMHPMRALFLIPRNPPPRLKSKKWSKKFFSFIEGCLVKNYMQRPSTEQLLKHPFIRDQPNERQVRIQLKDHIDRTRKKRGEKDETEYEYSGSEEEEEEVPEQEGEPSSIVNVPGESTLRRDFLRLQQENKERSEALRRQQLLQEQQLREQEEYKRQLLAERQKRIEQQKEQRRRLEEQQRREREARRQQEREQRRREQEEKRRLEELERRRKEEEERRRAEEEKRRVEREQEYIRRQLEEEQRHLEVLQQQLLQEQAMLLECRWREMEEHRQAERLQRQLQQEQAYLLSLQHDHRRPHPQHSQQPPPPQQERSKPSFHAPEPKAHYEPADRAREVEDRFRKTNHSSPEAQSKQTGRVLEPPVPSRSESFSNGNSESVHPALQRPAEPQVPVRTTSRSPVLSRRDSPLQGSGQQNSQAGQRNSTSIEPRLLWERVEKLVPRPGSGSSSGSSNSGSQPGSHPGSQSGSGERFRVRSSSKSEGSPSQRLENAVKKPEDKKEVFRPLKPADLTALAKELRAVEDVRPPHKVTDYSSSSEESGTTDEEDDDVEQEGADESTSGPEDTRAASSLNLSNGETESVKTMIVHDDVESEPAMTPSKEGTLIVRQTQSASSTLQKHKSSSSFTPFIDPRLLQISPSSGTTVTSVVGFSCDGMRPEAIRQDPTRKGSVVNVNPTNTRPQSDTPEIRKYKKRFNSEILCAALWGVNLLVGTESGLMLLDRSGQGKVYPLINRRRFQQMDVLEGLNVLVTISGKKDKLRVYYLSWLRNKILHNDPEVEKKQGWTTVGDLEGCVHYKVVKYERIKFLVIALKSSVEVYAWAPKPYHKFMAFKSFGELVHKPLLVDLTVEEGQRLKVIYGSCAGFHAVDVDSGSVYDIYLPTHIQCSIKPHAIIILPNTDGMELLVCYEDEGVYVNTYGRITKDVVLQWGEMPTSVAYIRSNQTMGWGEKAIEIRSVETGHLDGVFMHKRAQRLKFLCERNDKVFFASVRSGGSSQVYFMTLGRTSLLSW

Activated CDC42 kinase 1 = Activated CDC42 kinase 1 (Homo sapiens, UniProt Q07912); test: Navigating the Kinome. Panel member name: ACK1; format: functional
[14] = target: Macrophage colony-stimulating factor 1 receptor (Homo sapiens, UniProt P07333); format: functional;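 also: value comes from the Navigating the Kinome screening panel, CSF1R member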
Chain of Macrophage colony-stimulating factor 1 receptor (P07333 whole entry): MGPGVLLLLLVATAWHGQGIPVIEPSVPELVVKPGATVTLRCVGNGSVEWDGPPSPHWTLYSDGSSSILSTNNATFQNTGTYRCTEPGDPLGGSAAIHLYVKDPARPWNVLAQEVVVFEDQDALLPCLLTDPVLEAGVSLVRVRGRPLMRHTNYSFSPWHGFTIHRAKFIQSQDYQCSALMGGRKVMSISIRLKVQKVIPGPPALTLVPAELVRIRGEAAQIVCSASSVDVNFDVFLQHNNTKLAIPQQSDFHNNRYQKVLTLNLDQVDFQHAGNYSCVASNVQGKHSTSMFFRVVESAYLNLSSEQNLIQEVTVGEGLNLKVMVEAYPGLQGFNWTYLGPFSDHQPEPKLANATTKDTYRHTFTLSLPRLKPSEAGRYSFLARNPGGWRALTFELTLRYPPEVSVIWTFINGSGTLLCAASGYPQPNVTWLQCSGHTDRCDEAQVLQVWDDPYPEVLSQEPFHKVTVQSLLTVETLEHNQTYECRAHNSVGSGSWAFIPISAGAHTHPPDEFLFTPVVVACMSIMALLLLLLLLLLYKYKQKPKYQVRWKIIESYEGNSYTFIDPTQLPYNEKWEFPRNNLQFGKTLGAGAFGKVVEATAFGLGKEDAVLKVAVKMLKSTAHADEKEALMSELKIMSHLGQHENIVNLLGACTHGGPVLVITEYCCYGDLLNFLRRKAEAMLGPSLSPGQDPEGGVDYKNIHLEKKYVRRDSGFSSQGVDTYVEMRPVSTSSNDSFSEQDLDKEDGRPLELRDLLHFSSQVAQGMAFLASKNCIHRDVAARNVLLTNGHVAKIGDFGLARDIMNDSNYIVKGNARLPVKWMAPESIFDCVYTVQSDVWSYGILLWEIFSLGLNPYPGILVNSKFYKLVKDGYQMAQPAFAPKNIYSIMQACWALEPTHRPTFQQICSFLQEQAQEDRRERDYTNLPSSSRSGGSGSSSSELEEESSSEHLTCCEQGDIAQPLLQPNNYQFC

[15] = target: Dual specificity tyrosine-phosphorylation-regulated kinase 1B (Homo sapiens, UniProt Q9Y463); test: Navigating the Kinome. Panel member name: DYRK1B; format: functional
Chain of Dual specificity tyrosine-phosphorylation-regulated kinase 1B (Q9Y463 whole entry): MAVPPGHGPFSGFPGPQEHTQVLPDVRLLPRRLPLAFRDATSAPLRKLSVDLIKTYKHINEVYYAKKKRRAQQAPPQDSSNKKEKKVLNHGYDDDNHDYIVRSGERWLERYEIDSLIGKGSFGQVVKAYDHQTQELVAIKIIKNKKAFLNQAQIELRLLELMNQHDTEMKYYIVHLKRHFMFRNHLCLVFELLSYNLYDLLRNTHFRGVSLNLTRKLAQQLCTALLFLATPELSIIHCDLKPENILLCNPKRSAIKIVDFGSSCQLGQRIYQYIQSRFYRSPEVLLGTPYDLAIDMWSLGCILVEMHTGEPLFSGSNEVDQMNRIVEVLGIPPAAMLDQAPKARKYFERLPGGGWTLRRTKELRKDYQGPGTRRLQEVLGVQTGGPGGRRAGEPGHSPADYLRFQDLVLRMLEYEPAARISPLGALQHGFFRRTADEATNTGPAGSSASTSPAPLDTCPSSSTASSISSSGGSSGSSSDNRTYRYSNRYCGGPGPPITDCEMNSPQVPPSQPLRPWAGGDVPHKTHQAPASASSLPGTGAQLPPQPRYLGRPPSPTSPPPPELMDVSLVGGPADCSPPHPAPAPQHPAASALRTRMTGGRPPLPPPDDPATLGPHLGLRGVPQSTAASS

[16] = target: Dual specificity protein kinase CLK2 (Homo sapiens, UniProt P49760); format: functional
Chain of Dual specificity protein kinase CLK2 (P49760 whole entry): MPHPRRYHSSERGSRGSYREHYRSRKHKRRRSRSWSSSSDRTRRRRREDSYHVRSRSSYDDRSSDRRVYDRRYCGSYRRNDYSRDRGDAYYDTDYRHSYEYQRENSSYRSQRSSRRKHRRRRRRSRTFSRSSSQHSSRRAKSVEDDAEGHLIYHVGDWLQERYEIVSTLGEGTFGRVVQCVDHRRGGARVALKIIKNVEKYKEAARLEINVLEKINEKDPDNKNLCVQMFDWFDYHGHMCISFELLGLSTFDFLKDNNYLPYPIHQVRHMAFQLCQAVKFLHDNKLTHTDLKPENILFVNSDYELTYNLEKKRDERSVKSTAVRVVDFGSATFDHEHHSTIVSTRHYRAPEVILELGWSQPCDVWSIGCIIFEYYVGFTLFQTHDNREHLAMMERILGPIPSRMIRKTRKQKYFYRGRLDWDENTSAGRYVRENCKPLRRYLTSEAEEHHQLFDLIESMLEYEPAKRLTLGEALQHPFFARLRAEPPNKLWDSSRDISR

[17] = target: T1, Serine/threonine-protein kinase D3 (Homo sapiens, UniProt O94806); format: functional;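 also: determined within a kinase panel screen, with PRKCN as the panel member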
T1 sequence (O94806 whole entry): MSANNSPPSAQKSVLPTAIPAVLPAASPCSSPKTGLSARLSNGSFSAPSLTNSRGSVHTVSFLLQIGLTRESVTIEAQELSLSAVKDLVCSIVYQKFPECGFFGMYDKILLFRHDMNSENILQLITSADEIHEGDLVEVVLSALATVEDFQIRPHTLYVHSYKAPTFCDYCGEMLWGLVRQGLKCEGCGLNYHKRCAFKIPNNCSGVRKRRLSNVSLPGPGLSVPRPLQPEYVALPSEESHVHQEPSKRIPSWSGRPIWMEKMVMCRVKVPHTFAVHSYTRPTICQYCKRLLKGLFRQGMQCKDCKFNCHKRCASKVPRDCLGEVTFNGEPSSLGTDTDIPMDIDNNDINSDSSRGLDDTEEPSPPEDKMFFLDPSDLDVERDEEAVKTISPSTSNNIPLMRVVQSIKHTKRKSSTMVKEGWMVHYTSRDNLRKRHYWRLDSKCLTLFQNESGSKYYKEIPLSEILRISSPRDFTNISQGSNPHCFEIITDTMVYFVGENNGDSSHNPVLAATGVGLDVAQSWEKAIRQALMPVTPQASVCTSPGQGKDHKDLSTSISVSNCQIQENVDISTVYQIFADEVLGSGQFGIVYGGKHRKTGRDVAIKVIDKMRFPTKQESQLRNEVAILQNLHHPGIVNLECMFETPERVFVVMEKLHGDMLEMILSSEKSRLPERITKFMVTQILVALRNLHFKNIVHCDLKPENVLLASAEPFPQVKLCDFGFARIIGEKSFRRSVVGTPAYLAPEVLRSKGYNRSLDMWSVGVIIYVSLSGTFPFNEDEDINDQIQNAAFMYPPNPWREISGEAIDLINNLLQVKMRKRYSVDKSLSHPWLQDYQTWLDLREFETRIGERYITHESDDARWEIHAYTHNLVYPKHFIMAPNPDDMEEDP

Streptokinase A = target: T2, Streptokinase A (Streptococcus pyogenes serotype M1, UniProt P10520); test: S. pyogenes streptokinase expression inhibitors, potency, dose response, plasminogen activation absorbance, OD405 (AID 1914); format: functional, Streptococcus pyogenes M1 GAS;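 also: secreted streptokinase activity via plasminogen activation per viability signal from cell pellet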
T2 sequence (P10520 whole entry): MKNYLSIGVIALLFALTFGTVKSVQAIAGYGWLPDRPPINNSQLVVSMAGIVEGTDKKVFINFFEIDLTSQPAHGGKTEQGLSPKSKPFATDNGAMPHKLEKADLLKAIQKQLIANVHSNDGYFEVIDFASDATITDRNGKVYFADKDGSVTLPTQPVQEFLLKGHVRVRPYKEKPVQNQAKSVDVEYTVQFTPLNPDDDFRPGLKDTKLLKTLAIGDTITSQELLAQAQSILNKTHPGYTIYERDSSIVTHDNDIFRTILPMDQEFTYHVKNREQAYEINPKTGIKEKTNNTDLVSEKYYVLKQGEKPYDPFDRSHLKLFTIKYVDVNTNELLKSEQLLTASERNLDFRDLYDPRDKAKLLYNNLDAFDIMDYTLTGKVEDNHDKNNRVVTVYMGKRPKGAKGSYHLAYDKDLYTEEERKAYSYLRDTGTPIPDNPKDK

[18] = test system: Streptococcus sp. 'group A'; test: growth inhibition of control SK(-) GAS strain, dose response, counter-screen for streptokinase expression inhibitor project, luminescence, kanamycin, BacTiterGlo, confirmation (AID 1900); format: functional, organism-based
Streptococcus = test: Group A Streptococcus viability loss, dose response, counter-screen for streptokinase expression inhibitor project, luminescence, BacTiterGlo (AID 1915); format: functional, organism-based;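 also: potency for reduction of bacterial viability or growth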
[19] = growth suppression of PTEN-null colon cells, dose response, cell-based, HCT116 PTEN knockout (AID 1047); format: functional;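 also: HCT116 colon tumor cells with PTEN knocked out; cells exposed to compound for 60 hours before readout; potency for loss of cell viability measured by luminescence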

Chain of Death-associated protein kinase 3 (O43293 whole entry): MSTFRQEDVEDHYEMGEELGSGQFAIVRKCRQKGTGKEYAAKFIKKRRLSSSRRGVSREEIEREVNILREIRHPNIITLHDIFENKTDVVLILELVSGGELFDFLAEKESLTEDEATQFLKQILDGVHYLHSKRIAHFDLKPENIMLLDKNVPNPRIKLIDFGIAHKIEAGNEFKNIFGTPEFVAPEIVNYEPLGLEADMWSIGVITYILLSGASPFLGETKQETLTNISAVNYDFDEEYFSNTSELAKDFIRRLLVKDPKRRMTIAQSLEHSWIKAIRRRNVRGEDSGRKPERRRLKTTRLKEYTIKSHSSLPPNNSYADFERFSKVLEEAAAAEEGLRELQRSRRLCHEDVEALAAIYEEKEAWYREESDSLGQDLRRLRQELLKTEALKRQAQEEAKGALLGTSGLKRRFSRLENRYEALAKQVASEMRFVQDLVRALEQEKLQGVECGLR

NC1CCC(Nc2nc(Cl)cc(-c3c[nH]c4ncccc34)n2)CC1 (stereo unspecified)
5.4: pKi [7]
8.1: pKi [16]
8.3: pKi [4] | pKi [17]
7.8: pKi [15]
5.5: pKi [10]
9: pKi [2]
5.7: pKi (Activated CDC42 kinase 1)
6.4: pKi [6]
6.1: pKi [5] | pKi [11]
active: Ki [1] 0.0501 µM | Ki [2] 0.001 µM | Ki [3] 0.631 µM | Ki [4] 0.00501 µM | Ki [5] 0.794 µM | Ki [6] 0.398 µM | Ki [7] 3.98 µM | Ki [8] 0.0631 µM | Ki [9] 0.2 µM | Ki [10] 3.16 µM | Ki [11] 0.794 µM | Ki [12] 2.51 µM | Ki [13] 0.02 µM | Ki (Activated CDC42 kinase 1) 2 µM | Ki [14] 0.126 µM | Ki [15] 0.0158 µM | Ki [16] 0.00794 µM | Ki [17] 0.00501 µM
7.2: pKi [8]
6.9: pKi [14]
6.2: pKi [3]
6.7: pKi [9]
7.3: pKi [1]
7.7: pKi [13]

CCCCCCCCCCCCCCCC[N+](C)(C)C
active: EC50 (Streptokinase A) 19.6 µM | EC50 [18] 2.06 µM | EC50 (Streptococcus) 7.77 µM

CCOC(=O)c1ccc(NC2=CC(=O)C(=O)c3ccccc32)cc1
active: EC50 (Streptokinase A) 9.93 µM | EC50 [18] 2.3 µM | EC50 [19] 15.5 µM | EC50 (Streptococcus) 9.24 µM

OC(CNCCC1C=Nc2ccccc21)Cn1c2ccc(Cl)cc2c2cc(Cl)ccc21 (stereo unspecified)
active: EC50 [19] 2.73 µM

O=C(O)C1CN(Cc2ccc(OCc3ccccc3)cc2Cl)C1
inactive: Ki [1] > 5.01 µM | Ki [2] > 2.51 µM | Ki [3] > 6.31 µM | Ki [4] > 3.98 µM | Ki [5] > 3.98 µM | Ki [6] > 3.98 µM | Ki [7] > 3.98 µM | Ki [8] > 3.98 µM | Ki [9] > 3.98 µM | Ki [10] > 6.31 µM | Ki [11] > 2.51 µM | Ki [12] > 3.16 µM | Ki [13] > 5.01 µM | Ki (Activated CDC42 kinase 1) > 3.98 µM | Ki [14] > 2.51 µM | Ki [15] > 2.51 µM | Ki [16] > 3.98 µM | Ki [17] > 3.98 µM
